Marks after values point to notes of the source that are not given here.
Tested on: experimental ulcerative colitis
Experiment: DSS modeling and treatment of experimental ulcerative colitis in rat
Type: in vivo, SD rat
Details: SASP 0.02 g/ml i.g., twice a day for 21 days
Protocol: The producing method of live bacteria preparation of Bacillus coagulans for the treatment of ulcerative colitis comprises following steps: incubating Bacillus coagulans by fermentation; drying bacteria slurry after centrifugation to obtain live bacteria powder, which is then prepared as suitable dosage forms. Ulcerative colitis is characterized in that pathological change mostly occurs at rectum and sigmoid flexure, or throughout the whole colon. A microscopic examination of colon can show mucosal blooding, edema, erosion or superficial ulcertion on affected intestine with mucus and inflammatory exudate covered thereon. Bleeding, inflammatory cell infiltration, epithelial cell decreasing, crypt collapsing and distorting, abscess formation are also often found in microscopic examination. Chronic ulcer may heal to form scar or pseudopolyp. Experimental study is to administrate dextran sodium sulfate (DSS) to SD rat by i.g. and rectal injection to induce experimental ulcerative colitis model, and then subject the modeled rat to experimental treatment with a live bacterial tablet of Bacillus coagulans, whereby the treatment effect of tablet is evaluated. The use is to apply the live bacterial tablet of Bacillus coagulans to clinically treat patients suffering from ulcerative colitis, whereby the efficacy and safety of the live bacterial preparation for UC patients is evaluated.
60 rats were kept under a sterile environment before test. Normal intestinal flora was taken from stools in the rats' anuses and incubated. 10 rats were taken as normal control and other 50 rats as experimental group. According a modified UC rat modeling method (Xiaoping Wu etc., Chinese Journal of Digestion, Vol. 23(5):305, 2003), 3% dextran sodium sulfate (DSS) solution was i.g. administrated to rats with empty stomachs (1 ml/100 g), once a day for 7 days. At the last time, 1 ml/rat of DSS was additionally injected into recta through anuses. After 7 days, stools were taken for flora analysis. 10 rats were then sacrificed and colons were removed by laparocolectomy. The wet weights of colons were measured (g/100 g body weight). The colons was fixed with formaldehyde and stained with alcian blue solution (Sino-American Biotec). The point counts of ulcer and erosion parts were observed by naked eye. Areas (cm^2) of the largest stained blue points were measured with calipers. After the confirmation of UC formation, rats were divided into 4 groups, 10 rats per group. The rats were administrated i.g. with live bacteria tablet of Bacillus coagulans(BC) (10^7 cfU/ml, 10^6 cfU/ml), 0.02 g/ml salicylazosulfapyridine (SASP) and normal saline solution (NS), respectively, twice a day for 21 days, afterwhich the stools were taken for flora analysis. Thereafter, all of the rats were sacrificed. Colon specimens were treated according to above method and corresponding indicators were determined. In addition, intestinal tissue masses were sampled to prepare 5% homogenates, which were determined for their activities of myeloperoxidase (MPO) (U/g·wet slice) with myeloperoxidase test kit (Nanjing JianCheng Bioengineering Institute) by ultraviolet spectrometry (Beijing Technical Application Institute).
The intestinal flora was incubated and analyzed as follows. Fresh stools were extruded out from rats' anuses under sterile condition before or after modeling and after treatment, respectively. […]

In the case of `O=C(O)c1cc(/N=N/c2ccc(S(=O)(=O)Nc3ccccn3)cc2)ccc1O` [SASP, salicylazosulfapyridine], the “Intestinal wet weight (g/100 g body weight)” value is reported as 0.54 ± 0.05**^Δ g/100 g body weight, the “Ulcer or erosion points, Count of Points” value is reported as 2.20 ± 0.79**^ΔΔ and the “Ulcer or erosion points, area (cm^2)” value is reported as 0.22 ± 0.18**^Δ cm^2. The “Body weight (g) After treatment” value (DSS-modeled rats) was 264.00 ± 13.50 g and the “MPO activity (U/g wet weight)” value (intestinal tissue homogenate) was 0.20 ± 0.10**^ΔΔ U/g wet weight.
